Experimental data from ChEMBL document CHEMBL3259629, “Discovery and optimization of piperidyl-1,2,3-triazole ureas as potent, selective, and in vivo-active inhibitors of α/β-hydrolase domain containing 6 (ABHD6)” (J Med Chem, 2013).

Legend:
Conditions in all cases: Neuro2a, 3 nM
[1] = molecular target: T1, Monoacylglycerol lipase ABHD6 (Mus musculus) (UniProt Q8R2Y0)
T1 sequence (whole entry): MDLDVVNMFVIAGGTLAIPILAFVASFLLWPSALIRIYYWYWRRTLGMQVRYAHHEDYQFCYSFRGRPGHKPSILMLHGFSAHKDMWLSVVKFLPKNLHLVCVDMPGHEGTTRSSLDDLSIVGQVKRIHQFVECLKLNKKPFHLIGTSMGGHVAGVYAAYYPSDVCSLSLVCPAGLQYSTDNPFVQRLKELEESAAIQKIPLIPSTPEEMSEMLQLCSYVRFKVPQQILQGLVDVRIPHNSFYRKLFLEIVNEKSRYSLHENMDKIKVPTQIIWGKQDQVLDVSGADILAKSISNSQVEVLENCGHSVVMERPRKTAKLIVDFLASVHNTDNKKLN

[2] = molecular target: T2, Platelet-activating factor acetylhydrolase IB subunit alpha2 (Mus musculus) (UniProt Q61206)
T2 sequence (whole entry): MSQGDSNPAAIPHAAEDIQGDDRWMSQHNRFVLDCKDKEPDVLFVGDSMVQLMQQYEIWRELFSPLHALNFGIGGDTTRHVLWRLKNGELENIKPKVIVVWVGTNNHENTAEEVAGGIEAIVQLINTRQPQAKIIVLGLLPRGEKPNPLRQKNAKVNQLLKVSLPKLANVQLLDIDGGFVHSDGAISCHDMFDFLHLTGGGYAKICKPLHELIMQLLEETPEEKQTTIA
Description: Inhibition of Pafah1b2 in mouse Neuro2a cells at 3 nM after 4 hrs by ABPP-SILAC assay

[3] = molecular target: Prolyl endopeptidase (Mus musculus) (UniProt Q9QUR6)
Description: Inhibition of Perp in mouse Neuro2a cells at 3 nM after 4 hrs by ABPP-SILAC assay

[4] = molecular target: Acyl-protein thioesterase 1 (Mus musculus) (UniProt P97823)
Description: Inhibition of Lypla1 in mouse Neuro2a cells at 3 nM after 4 hrs by ABPP-SILAC assay

[5] = molecular target: Acyl-protein thioesterase 2 (Mus musculus) (UniProt Q9WTL7)
Description: Inhibition of Lypla2 in mouse Neuro2a cells at 3 nM after 4 hrs by ABPP-SILAC assay

[6] = molecular target: T3, Palmitoyl-protein thioesterase ABHD10, mitochondrial (Mus musculus) (UniProt Q6PE15)
T3 sequence (whole entry): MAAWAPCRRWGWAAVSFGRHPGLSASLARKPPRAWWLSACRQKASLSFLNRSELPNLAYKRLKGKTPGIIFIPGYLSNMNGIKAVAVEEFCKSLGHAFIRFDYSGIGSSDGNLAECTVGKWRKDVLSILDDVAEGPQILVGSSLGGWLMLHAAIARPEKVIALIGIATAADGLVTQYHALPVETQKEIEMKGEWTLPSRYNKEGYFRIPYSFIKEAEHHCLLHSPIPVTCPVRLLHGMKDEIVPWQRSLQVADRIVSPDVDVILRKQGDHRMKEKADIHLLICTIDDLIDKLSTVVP
Description: Inhibition of Abhd10 in mouse Neuro2a cells at 3 nM after 4 hrs by ABPP-SILAC assay

[7] = molecular target: T4, Acyl-coenzyme A thioesterase 1 (Mus musculus) (UniProt O55137)
T4 sequence (whole entry): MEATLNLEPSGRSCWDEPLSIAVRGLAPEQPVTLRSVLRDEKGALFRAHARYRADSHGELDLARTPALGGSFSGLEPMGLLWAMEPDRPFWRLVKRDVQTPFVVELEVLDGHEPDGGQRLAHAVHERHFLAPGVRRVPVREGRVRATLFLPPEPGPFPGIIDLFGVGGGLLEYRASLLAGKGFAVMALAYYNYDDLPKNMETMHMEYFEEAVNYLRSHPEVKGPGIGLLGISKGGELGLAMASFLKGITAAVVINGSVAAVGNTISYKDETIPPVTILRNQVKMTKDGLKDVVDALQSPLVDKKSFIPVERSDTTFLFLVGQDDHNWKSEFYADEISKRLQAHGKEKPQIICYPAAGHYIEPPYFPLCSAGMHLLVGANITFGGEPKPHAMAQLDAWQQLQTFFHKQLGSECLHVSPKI
Description: Inhibition of Acot1 in mouse Neuro2a cells at 3 nM after 4 hrs by ABPP-SILAC assay

[8] = molecular target: Tissue-type plasminogen activator (Mus musculus) (UniProt P11214)
Description: Inhibition of Plat in mouse Neuro2a cells at 3 nM after 4 hrs by ABPP-SILAC assay

[9] = molecular target: T5, Glutamyl-tRNA(Gln) amidotransferase subunit A, mitochondrial (Mus musculus) (UniProt Q9CZN8)
T5 sequence (whole entry): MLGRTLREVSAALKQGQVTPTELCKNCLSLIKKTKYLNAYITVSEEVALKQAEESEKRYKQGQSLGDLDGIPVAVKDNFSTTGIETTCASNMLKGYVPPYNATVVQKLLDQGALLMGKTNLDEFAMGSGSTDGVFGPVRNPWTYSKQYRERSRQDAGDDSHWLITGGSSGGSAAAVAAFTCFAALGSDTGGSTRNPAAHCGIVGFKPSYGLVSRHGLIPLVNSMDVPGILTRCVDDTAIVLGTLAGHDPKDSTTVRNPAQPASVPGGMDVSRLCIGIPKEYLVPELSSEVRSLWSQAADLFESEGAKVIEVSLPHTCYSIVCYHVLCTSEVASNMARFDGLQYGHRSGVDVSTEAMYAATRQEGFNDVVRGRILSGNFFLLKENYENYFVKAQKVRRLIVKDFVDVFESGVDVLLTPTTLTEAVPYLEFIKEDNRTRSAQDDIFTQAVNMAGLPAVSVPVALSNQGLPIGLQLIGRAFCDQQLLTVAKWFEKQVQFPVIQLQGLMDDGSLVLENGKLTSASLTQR
Description: Inhibition of Qrsl1 in mouse Neuro2a cells at 3 nM after 4 hrs by ABPP-SILAC assay

[10] = molecular target: T6, Calcium-independent phospholipase A2-gamma (Mus musculus) (UniProt Q8K1N1)
T6 sequence (whole entry): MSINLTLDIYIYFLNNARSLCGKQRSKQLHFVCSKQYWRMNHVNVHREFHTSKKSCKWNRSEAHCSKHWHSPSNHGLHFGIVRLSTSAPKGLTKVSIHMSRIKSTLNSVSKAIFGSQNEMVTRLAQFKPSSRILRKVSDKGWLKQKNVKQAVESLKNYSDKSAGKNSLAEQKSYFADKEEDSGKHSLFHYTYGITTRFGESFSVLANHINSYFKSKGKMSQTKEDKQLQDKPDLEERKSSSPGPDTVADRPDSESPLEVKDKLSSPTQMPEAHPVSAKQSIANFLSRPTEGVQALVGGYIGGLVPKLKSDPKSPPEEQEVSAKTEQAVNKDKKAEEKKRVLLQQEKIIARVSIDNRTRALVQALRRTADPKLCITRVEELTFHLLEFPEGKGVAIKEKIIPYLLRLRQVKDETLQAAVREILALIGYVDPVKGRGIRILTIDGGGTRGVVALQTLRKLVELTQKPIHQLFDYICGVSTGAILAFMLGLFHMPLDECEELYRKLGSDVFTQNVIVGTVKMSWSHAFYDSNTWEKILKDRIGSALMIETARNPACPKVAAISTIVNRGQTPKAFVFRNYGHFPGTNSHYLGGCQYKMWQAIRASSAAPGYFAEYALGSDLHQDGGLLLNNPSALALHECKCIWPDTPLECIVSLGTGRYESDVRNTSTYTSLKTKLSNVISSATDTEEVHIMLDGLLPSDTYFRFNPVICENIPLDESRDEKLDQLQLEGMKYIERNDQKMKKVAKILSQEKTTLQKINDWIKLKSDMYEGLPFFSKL
Description: Inhibition of Pnpla8 in mouse Neuro2a cells at 3 nM after 4 hrs by ABPP-SILAC assay

Chain of Prolyl endopeptidase (Mus musculus) (Q9QUR6 whole entry, looked up): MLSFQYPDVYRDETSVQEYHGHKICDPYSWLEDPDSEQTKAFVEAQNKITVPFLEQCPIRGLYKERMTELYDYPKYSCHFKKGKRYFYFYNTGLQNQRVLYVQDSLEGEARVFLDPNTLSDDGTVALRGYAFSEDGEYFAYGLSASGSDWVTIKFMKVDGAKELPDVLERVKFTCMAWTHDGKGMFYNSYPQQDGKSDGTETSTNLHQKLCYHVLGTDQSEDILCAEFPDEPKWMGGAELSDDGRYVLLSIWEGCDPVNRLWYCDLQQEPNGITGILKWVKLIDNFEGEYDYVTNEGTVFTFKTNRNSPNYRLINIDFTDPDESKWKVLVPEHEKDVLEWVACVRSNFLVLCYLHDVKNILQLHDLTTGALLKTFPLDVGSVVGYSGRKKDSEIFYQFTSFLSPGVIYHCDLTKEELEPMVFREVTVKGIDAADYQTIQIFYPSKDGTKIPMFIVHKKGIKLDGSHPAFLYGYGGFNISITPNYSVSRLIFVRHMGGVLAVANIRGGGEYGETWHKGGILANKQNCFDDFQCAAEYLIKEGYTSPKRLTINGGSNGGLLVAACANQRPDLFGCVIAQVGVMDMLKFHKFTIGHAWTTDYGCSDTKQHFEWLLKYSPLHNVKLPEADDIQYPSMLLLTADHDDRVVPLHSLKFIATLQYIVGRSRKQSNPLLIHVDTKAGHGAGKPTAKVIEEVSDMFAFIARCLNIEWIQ
Chain of Acyl-protein thioesterase 1 (Mus musculus) (P97823 whole entry): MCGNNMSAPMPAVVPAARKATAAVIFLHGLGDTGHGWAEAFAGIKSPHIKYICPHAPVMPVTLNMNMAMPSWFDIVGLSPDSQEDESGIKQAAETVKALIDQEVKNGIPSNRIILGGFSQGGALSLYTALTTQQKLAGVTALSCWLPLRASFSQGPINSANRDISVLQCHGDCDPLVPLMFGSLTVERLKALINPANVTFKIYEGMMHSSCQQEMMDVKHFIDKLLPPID
Chain of Acyl-protein thioesterase 2 (Mus musculus) (Q9WTL7 whole entry): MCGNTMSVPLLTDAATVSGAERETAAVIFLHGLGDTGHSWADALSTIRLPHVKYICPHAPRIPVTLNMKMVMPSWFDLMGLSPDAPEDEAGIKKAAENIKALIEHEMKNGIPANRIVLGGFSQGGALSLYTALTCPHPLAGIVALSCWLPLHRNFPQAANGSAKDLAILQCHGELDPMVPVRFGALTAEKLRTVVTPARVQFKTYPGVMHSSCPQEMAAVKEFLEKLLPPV
Chain of Tissue-type plasminogen activator (Mus musculus) (P11214 whole entry): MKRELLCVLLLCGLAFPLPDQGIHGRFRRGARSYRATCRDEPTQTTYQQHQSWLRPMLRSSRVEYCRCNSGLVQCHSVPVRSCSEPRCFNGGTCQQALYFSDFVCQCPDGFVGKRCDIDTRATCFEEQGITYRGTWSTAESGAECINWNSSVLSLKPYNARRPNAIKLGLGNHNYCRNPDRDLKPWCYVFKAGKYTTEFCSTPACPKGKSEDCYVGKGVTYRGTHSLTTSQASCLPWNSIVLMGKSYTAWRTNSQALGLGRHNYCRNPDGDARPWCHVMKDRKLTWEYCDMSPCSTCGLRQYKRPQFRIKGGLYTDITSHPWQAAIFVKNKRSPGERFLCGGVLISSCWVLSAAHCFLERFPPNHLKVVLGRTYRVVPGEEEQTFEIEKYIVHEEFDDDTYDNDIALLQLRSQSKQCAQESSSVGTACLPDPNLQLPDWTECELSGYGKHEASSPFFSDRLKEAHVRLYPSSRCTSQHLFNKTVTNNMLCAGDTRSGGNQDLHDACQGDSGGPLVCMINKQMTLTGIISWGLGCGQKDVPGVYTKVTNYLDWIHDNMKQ

Work on `O=C(c1cccc(-c2ccc(-c3cn(C(=O)N4CCCCC4c4ccccc4)nn3)cc2)c1)N1CCCCC1` (racemic) yielded an inhibition [1] greater than 80%, an inhibition [2] of less than 50% and an inhibition [3] of less than 50%. The inhibition [4] was less than 50%, the inhibition [5] was less than 50% and the inhibition [6] was less than 50%. For the same molecule, the inhibition [7] was less than 50%, the inhibition [8] was less than 50% and the inhibition [9] was less than 50%. For the same molecule, the inhibition [10] was less than 50%.
With `O=C(N1CCCCC1c1ccccc1)n1cc(-c2ccc(-c3cccc(CO)c3)cc2)nn1` (racemic) the inhibition [1] was greater than 90%, the inhibition [2] was less than 50% and the inhibition [3] was less than 50%. It also gave an inhibition [4] of less than 50%, an inhibition [5] of less than 50% and an inhibition [6] of less than 50%. It also gave an inhibition [7] of less than 50%, an inhibition [8] of less than 50% and an inhibition [9] of less than 50%. The inhibition [10] was less than 50%.
With `O=C(O)c1cccc(-c2ccc(-c3cn(C(=O)N4CCCCC4Cc4ccccc4)nn3)cc2)c1` (racemic) the inhibition [1] was greater than 90%, the inhibition [2] was less than 50% and the inhibition [3] was less than 50%. The inhibition [4] was less than 50%, the inhibition [5] was less than 50% and the inhibition [6] was less than 50%. The inhibition [7] was less than 50%, the inhibition [8] was less than 50% and the inhibition [9] was less than 50%. For the same molecule, the inhibition [10] was less than 50%.
